Measurements from US6964780B1, “Controlled-release pharmaceutical formulations” (Pfizer Inc., priority 1998, dated 2005).
Structures can show the parent of a compound that is named as a salt.

Test: solubility of sildenafil citrate as a function of pH
Type: physicochemical
Conditions: at pH values greater than 6
Description: Matrix formulations according to the present invention may contain a buffering agent. This is particularly useful when the formulation contains sildenafil citrate. A buffering agent of particular interest is aspartic acid. When it forms part of a matrix tablet, aspartic acid acts as a buffering agent to maintain a low pH at the surface of the tablet. […] When present, aspartic acid will typically make up 15–30% by weight of the formulation.

solubility: low solubility
SMILES: CCCc1nn(C)c2c(=O)[nH]c(-c3cc(S(=O)(=O)N4CCN(C)CC4)ccc3OCC)nc12 [sildenafil citrate, Sildenafil citrate]
